# Laboratory results reported in US12539292B2, “BRM targeting compounds and associated methods of use” (Arvinas Operations, Inc., priority 2018, dated 2026).
# Like-named read-outs stand apart in the source and are kept apart here.
# Target: T1, BRM (Homo sapiens, UniProt P51531)
# T1 construct: In-Cell Western Screen of BRM Degradation in SW1573 Cells; endogenous in cells; host or cells: SW1573
# Assay: In-cell Western screen of BRM degradation in SW1573 cells (Dmax and DC50)
# Type: cell-based
# Procedure, shortened: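 After adhering overnight, cells received compound for 18-20 hours. They were then washed in cold DPBS, fixed with 4% PFA for 20 min and permeabilized for 30 min. Blocking and fluorescent secondary staining followed before imaging.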
# [1] = BRM degradation, SW1573 cells, read-out: DC50
# [2] = BRM degradation, SW1573 cells, tested at the top concentration of between 0.3 and 10 μM, read-out: Dmax (%) (% degraded)
# [3] = BRM degradation, SW1573 cells, when tested at the top concentration of between 0.3 and 10 μM, read-out: Dmax (%) (% degraded)
# [4] = BRM degradation, SW1573 cells, read-out: Dmax (% degraded)
# [5] = target protein degradation, read-out: BRM DC50
# [6] = BRM degradation, SW1573 cells, Table 2D, read-out: *DC50
# T1 sequence (P51531 whole entry): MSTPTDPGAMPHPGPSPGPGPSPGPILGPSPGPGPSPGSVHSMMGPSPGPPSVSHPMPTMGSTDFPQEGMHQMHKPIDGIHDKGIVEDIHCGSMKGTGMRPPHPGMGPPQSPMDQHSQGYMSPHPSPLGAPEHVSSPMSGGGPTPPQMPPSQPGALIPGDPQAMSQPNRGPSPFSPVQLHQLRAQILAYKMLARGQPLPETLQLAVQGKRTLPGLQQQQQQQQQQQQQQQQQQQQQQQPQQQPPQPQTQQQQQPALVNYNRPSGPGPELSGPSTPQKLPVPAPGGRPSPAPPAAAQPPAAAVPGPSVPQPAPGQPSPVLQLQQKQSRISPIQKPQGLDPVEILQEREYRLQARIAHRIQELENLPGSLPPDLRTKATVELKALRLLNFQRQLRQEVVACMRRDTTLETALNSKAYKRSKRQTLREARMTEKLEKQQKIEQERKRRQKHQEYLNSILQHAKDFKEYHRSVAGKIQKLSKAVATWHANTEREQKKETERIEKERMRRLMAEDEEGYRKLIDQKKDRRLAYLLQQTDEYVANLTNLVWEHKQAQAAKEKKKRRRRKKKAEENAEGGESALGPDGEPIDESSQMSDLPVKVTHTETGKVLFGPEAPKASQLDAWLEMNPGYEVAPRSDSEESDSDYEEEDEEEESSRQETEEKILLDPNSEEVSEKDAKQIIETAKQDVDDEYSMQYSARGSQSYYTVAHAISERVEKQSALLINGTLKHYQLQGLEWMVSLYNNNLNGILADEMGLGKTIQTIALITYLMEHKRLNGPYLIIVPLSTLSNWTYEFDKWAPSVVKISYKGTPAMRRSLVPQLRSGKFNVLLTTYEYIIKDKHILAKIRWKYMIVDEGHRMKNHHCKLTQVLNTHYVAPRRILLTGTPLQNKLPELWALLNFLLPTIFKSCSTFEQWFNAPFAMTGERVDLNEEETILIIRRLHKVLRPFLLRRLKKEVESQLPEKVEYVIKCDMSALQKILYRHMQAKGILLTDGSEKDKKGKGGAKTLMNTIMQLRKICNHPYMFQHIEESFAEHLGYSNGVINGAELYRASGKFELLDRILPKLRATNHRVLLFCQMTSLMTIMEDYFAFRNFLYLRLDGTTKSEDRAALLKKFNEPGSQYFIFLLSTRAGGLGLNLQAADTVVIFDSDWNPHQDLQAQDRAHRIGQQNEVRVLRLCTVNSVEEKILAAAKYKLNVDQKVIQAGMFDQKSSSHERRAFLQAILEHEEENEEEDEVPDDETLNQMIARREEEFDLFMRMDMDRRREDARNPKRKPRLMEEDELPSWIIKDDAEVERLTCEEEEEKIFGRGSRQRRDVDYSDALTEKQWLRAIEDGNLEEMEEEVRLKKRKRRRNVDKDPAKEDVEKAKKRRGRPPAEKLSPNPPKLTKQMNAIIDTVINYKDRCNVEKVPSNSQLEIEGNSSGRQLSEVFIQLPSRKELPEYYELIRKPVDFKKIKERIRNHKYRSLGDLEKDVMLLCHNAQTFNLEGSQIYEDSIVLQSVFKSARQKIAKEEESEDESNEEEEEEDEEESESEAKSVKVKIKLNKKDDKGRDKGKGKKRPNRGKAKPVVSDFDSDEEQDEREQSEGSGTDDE
Compound,DC50 [1],Dmax [2],other results
"Cc1nccn1-c1ccc([C@H](C)NC(=O)[C@@H]2C[C@@H](O)CN2C(=O)[C@H](c2cc(OCC#Cc3ccc(O[C@H]4C[C@H](Oc5cc(N6C7CCC6CN(c6cc(-c8ccccc8O)nnc6N)C7)ccn5)C4)cn3)no2)C(C)C)cc1 [compound 233, (2S,4R)-1-((2S)-2-(3-((3-(5-((1r,3S)-3-((4-(3-(3-amino-6-(2-hydroxyphenyl)pyridazin-4-yl)-3,8-diazabicyclo[3.2.1]octan-8-yl)pyridin-2-yl)oxy)cyclobutoxy)pyridin-2-yl)prop-2-yn-1-yl)oxy)isoxazol-5-yl)-3-methylbutanoyl)-4-hydroxy-N-((S)-1-(4-(2-methyl-1H-imidazol-1-yl)phenyl)ethyl)pyrrolidine-2-carboxamide]",10 to 30 nM,> 75%,–
"Cc1ncsc1-c1ccc([C@H](C)NC(=O)[C@@H]2C[C@@H](O)CN2C(=O)[C@@H](c2cc(OCCOCCOCCCCN3CC4(CCN(c5cc(-c6ccccc6O)nnc5N)CC4)C3)no2)C(C)C)cc1 [compound 72, (2S,4R)-1-((R)-2-(3-(2-(2-(4-(7-(3-amino-6-(2-hydroxyphenyl)pyridazin-4-yl)-2,7-diazaspiro[3.5]nonan-2-yl)butoxy)ethoxy)ethoxy)isoxazol-5-yl)-3-methylbutanoyl)-4-hydroxy-N-((S)-1-(4-(4-methylthiazol-5-yl)phenyl)ethyl)pyrrolidine-2-carboxamide]",10 to 30 nM,–,Dmax [3]: > 75%
"Cc1ncsc1-c1ccc([C@H](C)NC(=O)[C@@H]2C[C@@H](O)CN2C(=O)[C@@H](c2cc(N3CCC[C@@H](CN4CCC(O[C@H]5C[C@H](Oc6cc(N7C8CCC7CN(c7cc(-c9ccccc9O)nnc7N)C8)ccn6)C5)CC4)C3)no2)C(C)C)cc1 (single isomer, unassigned) [compound 657]",< 2.5 nM,–,Dmax [4]: > 75%
"Cc1ncsc1-c1ccc([C@H](C)NC(=O)[C@@H]2C[C@@H](O)CN2C(=O)[C@@H](c2cc(OCC#Cc3ncc(O[C@H]4C[C@H](Oc5cc(N6C7CCC6CN(c6cc(-c8ccccc8O)nnc6N)C7)ccn5)C4)cn3)no2)C(C)C)cc1 [compound 232, (2S,4R)-1-((2R)-2-(3-((3-(5-((1r,3R)-3-((4-(3-(3-amino-6-(2-hydroxyphenyl)pyridazin-4-yl)-3,8-diazabicyclo[3.2.1]octan-8-yl)pyridin-2-yl)oxy)cyclobutoxy)pyrimidin-2-yl)prop-2-yn-1-yl)oxy)isoxazol-5-yl)-3-methylbutanoyl)-4-hydroxy-N-((S)-1-(4-(4-methylthiazol-5-yl)phenyl)ethyl)pyrrolidine-2-carboxamide]",< 2.5 nM,> 75%,–
"Cc1ncsc1-c1ccc([C@@H](CCC#N)NC(=O)[C@@H]2C[C@@H](O)CN2C(=O)[C@@H](c2cc(N3CCC(CN4CCC(O[C@H]5C[C@H](Oc6cc(N7C8CCC7CN(c7cc(-c9ccccc9O)nnc7N)C8)ccn6)C5)CC4)CC3)no2)C(C)C)cc1 [compound 673, (2S,4R)-1-((2R)-2-(3-(4-((4-((1r,3r)-3-((4-(3-(3-amino-6-(2-hydroxyphenyl)pyridazin-4-yl)-3,8-diazabicyclo[3.2.1]octan-8-yl)pyridin-2-yl)oxy)cyclobutoxy)piperidin-1-yl)methyl)piperidin-1-yl)isoxazol-5-yl)-3-methylbutanoyl)-N-((R)-3-cyano-1-(4-(4-methylthiazol-5-yl)phenyl)propyl)-4-hydroxypyrrolidine-2-carboxamide]",10 to 30 nM,–,Dmax [4]: 50 to 75%
"CC(C)C(C(=O)N1C[C@H](O)C[C@H]1C(=O)N[C@@H](C)c1ccc(-c2scnc2CO)cc1)c1cc(OCCN2CCN(CCOc3cc(N4C5CCC4CN(c4cc(-c6ccccc6O)nnc4N)C5)ccn3)CC2)no1 (stereo partly drawn) [compound 168, (2S,4R)-1-(2-(3-(2-(4-(2-((4-(3-(3-amino-6-(2-hydroxyphenyl)pyridazin-4-yl)-3,8-diazabicyclo[3.2.1]octan-8-yl)pyridin-2-yl)oxy)ethyl)piperazin-1-yl)ethoxy)isoxazol-5-yl)-3-methylbutanoyl)-4-hydroxy-N-((S)-1-(4-(4-(hydroxymethyl)thiazol-5-yl)phenyl)ethyl)pyrrolidine-2-carboxamide]",< 2.5 nM,> 75%,–
"COCCOCCOCCOCCOCCOCCOCCOCCOCCOCCOCCOCCOCCOCCOCCOCCOCCOCCOCCOCCOCCOCCOC(=O)CCC(=O)O[C@@H]1C[C@@H](C(=O)N[C@@H](C)c2ccc(-c3scnc3C)cc2)N(C(=O)[C@@H](c2cc(OCCN3CCC(O[C@H]4C[C@H](Oc5cc(N6C7CCC6CN(c6cc(-c8ccccc8O)nnc6N)C7)ccn5)C4)CC3)no2)C(C)C)C1 [compound 460, (3R,5S)-1-((2R)-2-(3-(2-(4-((1r,3R)-3-((4-(3-(3-amino-6-(2-hydroxyphenyl)pyridazin-4-yl)-3,8-diazabicyclo[3.2.1]octan-8-yl)pyridin-2-yl)oxy)cyclobutoxy)piperidin-1-yl)ethoxy)isoxazol-5-yl)-3-methylbutanoyl)-5-(((S)-1-(4-(4-methylthiazol-5-yl)phenyl)ethyl)carbamoyl) pyrrolidin-3-yl (2,5,8,11,14,17,20,23,26,29,32,3 5,38,41,44,47,50,53,56,59,62,65-docosaoxaheptahexacontan-67-yl) succinate]",–,–,"Dmax (SW1573, % degraded, when tested at the top concentration of between 0.3 and 10 μM, read-out: BRM Dmax (%)): > 75%; DC50 [5]: < 2.5 nM"
"Cc1ncsc1-c1ccc(CNC(=O)[C@@H]2C[C@@H](O)CN2C(=O)[C@H](c2cc(OCCOCCOCCOCCOc3cc(N4C5CCC4CN(c4cc(-c6ccccc6O)nnc4N)C5)ccn3)no2)C(C)C)cc1 [compound 29, (2S,4R)-1-[(2S)-2-(3-[[1-(4-[3-[3-amino-6-(2-hydroxyphenyl)pyridazin-4-yl]-3,8-diazabicyclo[3.2.1]octan-8-yl]pyridin-2-yl)-1,4,7,10-tetraoxadodecan-12-yl]oxy]-1,2-oxazol-5-yl)-3-methylbutanoyl]-4-hydroxy-N-[[4-(4-methyl-1,3-thiazol-5-yl)phenyl]methyl]pyrrolidine-2-carboxamide]",10 to 30 nM,–,Dmax [3]: > 75%
"Cc1ncsc1-c1ccc([C@H](C)NC(=O)[C@@H]2C[C@@H](O)CN2C(=O)[C@H](c2cc(N3CCC(CN4CCC(O[C@H]5C[C@H](Oc6cc(/C=C/c7cc(-c8ccccc8O)nnc7N)ccn6)C5)CC4)CC3)no2)C(C)C)cc1 [compound 625, (2S,4R)-1-((S)-2-(3-(4-((4-((1r,3r)-3-((4-((E)-2-(3-amino-6-(2-hydroxyphenyl)pyridazin-4-yl)vinyl)pyridin-2-yl)oxy)cyclobutoxy)piperidin-1-yl)methyl)piperidin-1-yl)isoxazol-5-yl)-3-methylbutanoyl)-4-hydroxy-N-((S)-1-(4-(4-methylthiazol-5-yl)phenyl)ethyl)pyrrolidine-2-carboxamide]",–,–,DC50 [6]: > 30 nM
"Cc1ncsc1-c1ccc([C@H](C)NC(=O)[C@@H]2C[C@@H](O)CN2C(=O)[C@H](c2cc(OCCC3CCN(C(=O)[C@H]4C[C@H](Oc5cc(N6C7CCC6CN(c6cc(-c8ccccc8O)nnc6N)C7)ccn5)C4)CC3)no2)C(C)C)cn1 [compound 260, (2S,4R)-1-((2S)-2-(3-(2-(1-((1r,3S)-3-((4-(3-(3-amino-6-(2-hydroxyphenyl)pyridazin-4-yl)-3,8-diazabicyclo[3.2.1]octan-8-yl)pyridin-2-yl)oxy)cyclobutane-1-carbonyl)piperidin-4-yl)ethoxy)isoxazol-5-yl)-3-methylbutanoyl)-4-hydroxy-N-((S)-1-(6-(4-methylthiazol-5-yl)pyridin-3-yl)ethyl)pyrrolidine-2-carboxamide]",> 30 nM,–,–
"COc1nc(-c2scnc2C)c(F)cc1[C@@H](C)NC(=O)[C@@H]1C[C@@H](O)CN1C(=O)[C@H](c1cc(OCCN2CCC(O[C@H]3C[C@H](Oc4cc(N5C6CCC5CN(c5cc(-c7ccccc7O)nnc5N)C6)ccn4)C3)CC2)no1)C(C)C [compound 563, (2S,4R)-1-((2S)-2-(3-(2-(4-((1r,3S)-3-((4-(3-(3-amino-6-(2-hydroxyphenyl)pyridazin-4-yl)-3,8-diazabicyclo[3.2.1]octan-8-yl)pyridin-2-yl)oxy)cyclobutoxy)piperidin-1-yl)ethoxy)isoxazol-5-yl)-3-methylbutanoyl)-N-((R)-1-(5-fluoro-2-methoxy-6-(4-methylthiazol-5-yl)pyridin-3-yl)ethyl)-4-hydroxypyrrolidine-2-carboxamide]",–,–,DC50 [6]: > 30 nM
"Cc1ncsc1-c1ccc([C@H](C)NC(=O)[C@@H]2C[C@@H](O)CN2C(=O)[C@@H](c2cc(OCCCN3CCC(O[C@H]4C[C@H](Oc5cc(N6C7CCC6CN(c6cc(-c8ccccc8O)nnc6N)C7)ccn5)C4)CC3)no2)C(C)C)cc1 [compound 218, (2S,4R)-1-((2R)-2-(3-(3-(4-((1r,3R)-3-((4-(3-(3-amino-6-(2-hydroxyphenyl)pyridazin-4-yl)-3,8-diazabicyclo[3.2.1]octan-8-yl)pyridin-2-yl)oxy)cyclobutoxy)piperidin-1-yl)propoxy)isoxazol-5-yl)-3-methylbutanoyl)-4-hydroxy-N-((S)-1-(4-(4-methylthiazol-5-yl)phenyl)ethyl)pyrrolidine-2-carboxamide]",< 2.5 nM,> 75%,–
"CC(C)[C@H](C(=O)N1C[C@H](O)C[C@H]1C(=O)N[C@@H](C)c1ccc(-c2nncs2)cc1)c1cc(OCCN2CCC(O[C@H]3C[C@H](Oc4cc(N5C6CCC5CN(c5cc(-c7ccccc7O)nnc5N)C6)ccn4)C3)CC2)no1 [compound 363, (2S,4R)-N-((S)-1-(4-(1,3,4-thiadiazol-2-yl)phenyl)ethyl)-1-((2S)-2-(3-(2-(4-((1r,3S)-3-((4-(3-(3-amino-6-(2-hydroxyphenyl)pyridazin-4-yl)-3,8-diazabicyclo[3.2.1]octan-8-yl)pyridin-2-yl)oxy)cyclobutoxy)piperidin-1-yl)ethoxy)isoxazol-5-yl)-3-methylbutanoyl)-4-hydroxypyrrolidine-2-carboxamide]",–,–,DC50 [5]: > 30 nM
